Source: PubChem BioAssay (NCI)
Values joined by “and” are separate entries in the source; they are usually repeats but may differ in a detail not shown here. Equal values may be shown once.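 Grown in 96-well plates, cells were treated for 48 hours with each compound at five concentrations. Insufficient inhibition: endpoint recorded as highest concentration tested. GI50 marks 50% less growth. TGI: concentration producing complete growth inhibition.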

Columns and labels:
Assay in all cases: growth of human tumour cells (NCI), 48 h
HOP-62 NSCLC = test system: HOP-62 NSCLC
SK-MEL-28 melanoma = test system: SK-MEL-28 melanoma
CCRF-CEM leukemia = test system: CCRF-CEM leukemia
SNB-75 CNS = test system: SNB-75 CNS
SK-MEL-2 melanoma = test system: SK-MEL-2 melanoma
MOLT-4 leukemia = test system: MOLT-4 leukemia
OVCAR-3 ovarian = test system: OVCAR-3 ovarian
UACC-62 melanoma = test system: UACC-62 melanoma
HT29 colon = test system: HT29 colon
BT-549 breast = test system: BT-549 breast

O=C1CCSC2=C1SCc1sccc12
TGI (HOP-62 NSCLC): > 100 µM
TGI (SK-MEL-28 melanoma): > 100 µM
TGI (CCRF-CEM leukemia): > 100 µM
TGI (SNB-75 CNS): > 100 µM
TGI (SK-MEL-2 melanoma): > 100 µM
TGI (MOLT-4 leukemia): > 100 µM
TGI (OVCAR-3 ovarian): > 100 µM
TGI (UACC-62 melanoma): > 100 µM

Nc1cc(=O)n(-c2ccccc2)c(=S)n1-c1ccccc1
TGI (HOP-62 NSCLC): > 100 µM
TGI (HT29 colon): > 100 µM
TGI (CCRF-CEM leukemia): > 100 µM
TGI (SNB-75 CNS): > 100 µM
TGI (SK-MEL-2 melanoma): > 100 µM
TGI (MOLT-4 leukemia): > 100 µM
TGI (OVCAR-3 ovarian): > 100 µM
TGI (UACC-62 melanoma): > 100 µM

COc1ccccc1NC(=O)c1nc2ccc([N+](=O)[O-])cc2nc1C
TGI (HOP-62 NSCLC): > 100 µM
TGI (HT29 colon): > 100 µM
TGI (SK-MEL-28 melanoma): > 100 µM
TGI (CCRF-CEM leukemia): > 100 µM
TGI (SNB-75 CNS): > 100 µM
TGI (SK-MEL-2 melanoma): > 100 µM
TGI (MOLT-4 leukemia): > 100 µM
TGI (OVCAR-3 ovarian): > 100 µM
TGI (UACC-62 melanoma): > 100 µM

N/N=c1\c2ccccc2c2cc3c(cc12)/c(=N/N)c1ccccc13
TGI (HOP-62 NSCLC): > 100 µM
TGI (HT29 colon): > 100 µM
TGI (SK-MEL-28 melanoma): > 100 µM
TGI (CCRF-CEM leukemia): > 100 µM
TGI (SNB-75 CNS): > 100 µM
TGI (SK-MEL-2 melanoma): > 100 µM
TGI (MOLT-4 leukemia): > 100 µM
TGI (UACC-62 melanoma): > 100 µM

Cc1c(O)c2c(c(O)c1Br)C(=O)C=CC2=O
TGI (BT-549 breast): 1.3 µM
GI50 (HOP-62 NSCLC): 2.48 µM
TGI (HOP-62 NSCLC): 2.36 µM and 5.35 µM
GI50 (HT29 colon): 0.602 µM
TGI (HT29 colon): 1.1 µM and 2.8 µM
GI50 (SK-MEL-28 melanoma): 1.59 µM
TGI (SK-MEL-28 melanoma): 2.33 µM and 3.07 µM
GI50 (SNB-75 CNS): 2.1 µM
TGI (SNB-75 CNS): 2.85 µM and 5.07 µM
GI50 (SK-MEL-2 melanoma): 1.93 µM
TGI (SK-MEL-2 melanoma): 4.45 µM
TGI (MOLT-4 leukemia): 0.101 µM
GI50 (OVCAR-3 ovarian): 0.241 µM
TGI (OVCAR-3 ovarian): 1.9 µM and 0.788 µM
GI50 (UACC-62 melanoma): 1.44 µM
TGI (UACC-62 melanoma): 2.1 µM and 3.21 µM

N#C[Se]CCCNS(=O)(=O)C1CC2C=CC1C2 (centres undefined)
GI50 (BT-549 breast): 0.192 µM
TGI (BT-549 breast): 0.388 µM
GI50 (HOP-62 NSCLC): 0.482 µM
TGI (HOP-62 NSCLC): 1.82 µM
GI50 (HT29 colon): 0.386 µM
TGI (HT29 colon): 5.31 µM
GI50 (SK-MEL-28 melanoma): 0.486 µM
TGI (SK-MEL-28 melanoma): 2.77 µM
GI50 (CCRF-CEM leukemia): 0.484 µM
TGI (CCRF-CEM leukemia): 38.2 µM
GI50 (SK-MEL-2 melanoma): 2 µM
TGI (SK-MEL-2 melanoma): 6.15 µM
GI50 (MOLT-4 leukemia): 0.409 µM
TGI (MOLT-4 leukemia): 22.6 µM
GI50 (OVCAR-3 ovarian): 1.47 µM
TGI (OVCAR-3 ovarian): 3.1 µM
GI50 (UACC-62 melanoma): 1.59 µM
TGI (UACC-62 melanoma): 3.38 µM

c1ccc2cc(C[n+]3ccn(CCCCCCCCCCn4cc[n+](Cc5ccc6ccccc6c5)c4)c3)ccc2c1
GI50 (HOP-62 NSCLC): 1.09 µM
TGI (HOP-62 NSCLC): 7.24 µM
GI50 (HT29 colon): 0.715 µM
TGI (HT29 colon): 4.74 µM
GI50 (SK-MEL-28 melanoma): 1.3 µM
TGI (SK-MEL-28 melanoma): 5.66 µM
GI50 (CCRF-CEM leukemia): 1.22 µM
TGI (CCRF-CEM leukemia): 2.97 µM
GI50 (SK-MEL-2 melanoma): 1.72 µM
TGI (SK-MEL-2 melanoma): 5.2 µM
GI50 (MOLT-4 leukemia): 1.36 µM
TGI (MOLT-4 leukemia): 3 µM
GI50 (OVCAR-3 ovarian): 1.95 µM
TGI (OVCAR-3 ovarian): 7.09 µM
GI50 (UACC-62 melanoma): 0.646 µM
TGI (UACC-62 melanoma): 3.08 µM

OCc1c[te]c(-c2ccccc2)c1
TGI (HOP-62 NSCLC): > 100 µM
TGI (SK-MEL-28 melanoma): > 100 µM
TGI (CCRF-CEM leukemia): > 100 µM
TGI (SNB-75 CNS): > 100 µM
TGI (SK-MEL-2 melanoma): 85.5 µM
TGI (MOLT-4 leukemia): > 100 µM
TGI (OVCAR-3 ovarian): 30.2 µM
TGI (UACC-62 melanoma): > 100 µM

Cc1ccc(S(=O)OCC23CC4CC(CC(C4)C2)C3)cc1 (centres undefined)
TGI (HOP-62 NSCLC): > 100 µM
TGI (HT29 colon): > 100 µM
TGI (SK-MEL-28 melanoma): > 100 µM
TGI (SNB-75 CNS): > 100 µM
TGI (MOLT-4 leukemia): > 100 µM
TGI (OVCAR-3 ovarian): > 100 µM
TGI (UACC-62 melanoma): > 100 µM

CC(=O)NC1C(OCc2ccccc2)OC(COC(=O)CCCCCCCCCCNc2ccc([N+](=O)[O-])c3[nH]c4ccccc4c(=O)c23)C(O)C1OC(C)C(=O)NC(C)C(=O)NC(CCC(N)=O)C(=O)OCc1ccccc1 (centres undefined)
TGI (HOP-62 NSCLC): > 100 µM
TGI (HT29 colon): > 100 µM
TGI (SK-MEL-28 melanoma): > 100 µM
TGI (SNB-75 CNS): > 100 µM
TGI (SK-MEL-2 melanoma): > 100 µM
TGI (MOLT-4 leukemia): > 100 µM
TGI (OVCAR-3 ovarian): > 100 µM
TGI (UACC-62 melanoma): > 100 µM

COC(=O)C(Cc1nc2ccccc2nc1C)/C(=N\NC(N)=O)C(=O)Nc1cccc([N+](=O)[O-])c1 (centres undefined)
TGI (HOP-62 NSCLC): > 100 µM
TGI (HT29 colon): > 100 µM
TGI (SK-MEL-28 melanoma): > 100 µM
TGI (CCRF-CEM leukemia): > 100 µM
TGI (SNB-75 CNS): > 100 µM
TGI (SK-MEL-2 melanoma): > 100 µM
TGI (MOLT-4 leukemia): > 100 µM
TGI (OVCAR-3 ovarian): > 100 µM
TGI (UACC-62 melanoma): > 100 µM

O=C(COC(=O)c1cccc2c(=O)c3ccccc3[nH]c12)Nc1ccc(C(=O)O)cc1
TGI (HOP-62 NSCLC): > 100 µM
TGI (HT29 colon): > 100 µM
TGI (SK-MEL-28 melanoma): > 100 µM
TGI (CCRF-CEM leukemia): > 100 µM
TGI (SNB-75 CNS): > 100 µM
TGI (MOLT-4 leukemia): > 100 µM
TGI (OVCAR-3 ovarian): > 100 µM
TGI (UACC-62 melanoma): > 100 µM

COc1ccc(C(=O)C(c2ccc(OCc3ccccc3)cc2)c2ccc(OCc3ccccc3)cc2)cc1
TGI (HOP-62 NSCLC): > 100 µM
TGI (HT29 colon): > 100 µM
TGI (SK-MEL-28 melanoma): > 100 µM
TGI (CCRF-CEM leukemia): > 100 µM
TGI (SNB-75 CNS): > 100 µM
TGI (SK-MEL-2 melanoma): > 100 µM
TGI (MOLT-4 leukemia): > 100 µM
TGI (OVCAR-3 ovarian): > 100 µM
TGI (UACC-62 melanoma): > 100 µM

O=C(/C(=C\c1ccc(Cl)cc1)c1ccccc1)c1ccccc1
TGI (HOP-62 NSCLC): > 100 µM
TGI (HT29 colon): > 100 µM
TGI (SK-MEL-28 melanoma): > 100 µM
TGI (CCRF-CEM leukemia): > 100 µM
TGI (SNB-75 CNS): > 100 µM
TGI (SK-MEL-2 melanoma): 75 µM
TGI (MOLT-4 leukemia): > 100 µM
TGI (UACC-62 melanoma): > 100 µM

c1ccc2c(c1)N=C(c1cccc3ccccc13)CC(c1ccc3c(c1)OCO3)S2 (centres undefined)
TGI (HOP-62 NSCLC): > 100 µM
TGI (HT29 colon): > 100 µM
TGI (CCRF-CEM leukemia): > 100 µM
TGI (SNB-75 CNS): > 100 µM
TGI (SK-MEL-2 melanoma): > 100 µM
TGI (MOLT-4 leukemia): > 100 µM
TGI (OVCAR-3 ovarian): > 100 µM
TGI (UACC-62 melanoma): > 100 µM

COc1ccc(C2C=C(c3ccc4c(c3)OCO4)Oc3c2c(=O)oc2ccccc32)cc1OC (centres undefined)
TGI (BT-549 breast): > 100 µM
TGI (HOP-62 NSCLC): > 100 µM
TGI (HT29 colon): > 85.5 µM
TGI (SK-MEL-28 melanoma): > 100 µM
TGI (CCRF-CEM leukemia): > 100 µM
TGI (SNB-75 CNS): 34.2 µM
TGI (MOLT-4 leukemia): > 100 µM
TGI (OVCAR-3 ovarian): 15.5 µM
TGI (UACC-62 melanoma): > 100 µM

C=C(C(=C)P(=S)(c1ccccc1)c1ccccc1)P(=S)(c1ccccc1)c1ccccc1
TGI (HOP-62 NSCLC): > 100 µM
TGI (HT29 colon): > 100 µM
TGI (SK-MEL-28 melanoma): > 100 µM
TGI (CCRF-CEM leukemia): > 100 µM
TGI (SNB-75 CNS): > 100 µM
TGI (SK-MEL-2 melanoma): > 100 µM
TGI (MOLT-4 leukemia): > 100 µM
TGI (OVCAR-3 ovarian): > 100 µM
TGI (UACC-62 melanoma): > 100 µM

Cc1ccc(Cl)c(Nc2ccccc2C(=O)O)c1Cl
GI50 (BT-549 breast): 21.7 µM
TGI (BT-549 breast): 60.1 µM
GI50 (HOP-62 NSCLC): 31.3 µM
TGI (HOP-62 NSCLC): > 100 µM
GI50 (HT29 colon): 35.6 µM
TGI (HT29 colon): > 100 µM
GI50 (SK-MEL-28 melanoma): 30.5 µM
TGI (SK-MEL-28 melanoma): 89 µM
GI50 (CCRF-CEM leukemia): 25.5 µM
TGI (CCRF-CEM leukemia): 90.1 µM
GI50 (SK-MEL-2 melanoma): 26.3 µM
TGI (SK-MEL-2 melanoma): 76 µM
GI50 (MOLT-4 leukemia): 29.9 µM
TGI (MOLT-4 leukemia): 83.9 µM
GI50 (OVCAR-3 ovarian): 20.3 µM
TGI (OVCAR-3 ovarian): 37.9 µM
GI50 (UACC-62 melanoma): 16.3 µM
TGI (UACC-62 melanoma): 32.7 µM

COC(=O)C1=C(C(=O)OC)C2(C)Nc3ccccc3C2=C(c2ccccc2)C1 (centres undefined)
TGI (HOP-62 NSCLC): 50.1 µM
TGI (HT29 colon): 70.6 µM
TGI (SK-MEL-28 melanoma): 40.7 µM
TGI (CCRF-CEM leukemia): 47.4 µM
TGI (SK-MEL-2 melanoma): 39 µM
TGI (MOLT-4 leukemia): 29.6 µM
TGI (OVCAR-3 ovarian): 52.2 µM
TGI (UACC-62 melanoma): 38.5 µM

CC#CC1C2CCCC1(CSc1ccccc1)NC(=O)O2 (centres undefined)
TGI (HOP-62 NSCLC): > 100 µM
TGI (HT29 colon): > 100 µM
TGI (SNB-75 CNS): > 100 µM
TGI (SK-MEL-2 melanoma): > 100 µM
TGI (MOLT-4 leukemia): > 100 µM
TGI (OVCAR-3 ovarian): > 100 µM
TGI (UACC-62 melanoma): > 100 µM
